According to ChEMBL document CHEMBL1201862, “PubChem BioAssay data set” (2004):
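Assay format: 96-well plates, 48-hour exposure. GI50 is the concentration that inhibits growth by half.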 Calls of active or inactive are those of the source. No stated cut-off is given here; in the data, active = GI50 up to about 1.1 µM and inactive = higher.

Key:
Assay in all cases: NCI anticancer screen, dose series, 48 h
HOP-62 = tested on: HOP-62
SNB-75 = tested on: SNB-75
SW-620 = tested on: SW-620
HT-29 = tested on: HT-29
M14 = tested on: M14
COLO 205 = tested on: COLO 205
SK-MEL-28 = tested on: SK-MEL-28
RPMI-8226 = tested on: RPMI-8226
SF-295 = tested on: SF-295
DLD-1 = tested on: DLD-1
NCI-H226 = tested on: NCI-H226
OVCAR-8 = tested on: OVCAR-8
CCRF-CEM = tested on: CCRF-CEM
HCT-116 = tested on: HCT-116
HL-60 = tested on: HL-60
SK-MEL-5 = tested on: SK-MEL-5
OVCAR-5 = tested on: OVCAR-5
SN12C = tested on: SN12C
BT-549 = tested on: BT-549
SR = tested on: SR

| SMILES | GI50 (HOP-62) | GI50 (SNB-75) | GI50 (SW-620) | GI50 (HT-29) | GI50 (M14) | GI50 (COLO 205) | GI50 (SK-MEL-28) | GI50 (RPMI-8226) | GI50 (SF-295) | GI50 (DLD-1) | GI50 (NCI-H226) | GI50 (OVCAR-8) | GI50 (CCRF-CEM) | GI50 (HCT-116) | GI50 (HL-60) | GI50 (SK-MEL-5) | GI50 (OVCAR-5) | GI50 (SN12C) | GI50 (BT-549) | GI50 (SR) |
| --- | --- | --- | --- | --- | --- | --- | --- | --- | --- | --- | --- | --- | --- | --- | --- | --- | --- | --- | --- | --- |
| O=C(N/N=C(/c1nc2ccc(Cl)cc2[nH]c1=O)C(O)c1ccc(Cl)cc1Cl)c1ccncc1 (stereo unspecified) | > 100 µM (inactive) | > 100 µM (inactive) | > 100 µM (inactive) | > 100 µM (inactive) | > 100 µM (inactive) | > 100 µM (inactive) | > 100 µM (inactive) | > 100 µM (inactive) | > 100 µM (inactive) | > 100 µM (inactive) | > 100 µM (inactive) | > 100 µM (inactive) | > 100 µM (inactive) | > 100 µM (inactive) | > 100 µM (inactive) | > 100 µM (inactive) | > 100 µM (inactive) |  |  |  |
| COc1ccc(C2c3cc4c(cc3OC(O)(CO)C2C(=O)O)OCO4)c(OC)c1OC.COc1ccc(C2c3cc4c(cc3OC3(O)COC(=O)C23)OCO4)c(OC)c1OC (stereo unspecified) | > 100 µM (inactive) | 75.2 µM (inactive) | > 100 µM (inactive) | > 100 µM (inactive) | > 100 µM (inactive) | > 100 µM (inactive) | > 100 µM (inactive) | > 100 µM (inactive) | > 100 µM (inactive) | > 100 µM (inactive) |  | > 100 µM (inactive) | 39.4 µM (inactive) | > 100 µM (inactive) | 45 µM (inactive) | > 100 µM (inactive) |  | > 100 µM (inactive) |  |  |
| COc1ccc(CC(=O)c2cc(OC)c(OC)cc2C)cc1OC | > 100 µM (inactive) | > 100 µM (inactive) | > 100 µM (inactive) | > 100 µM (inactive) | > 100 µM (inactive) | > 100 µM (inactive) | 81.3 µM (inactive) | 65.3 µM (inactive) | 57.4 µM (inactive) | > 100 µM (inactive) |  | > 100 µM (inactive) | > 100 µM (inactive) |  |  | 24.9 µM (inactive) | > 100 µM (inactive) | 55.1 µM (inactive) |  |  |
| NNc1nncc2[nH]nnc12 | > 100 µM (inactive) | 5.74 µM (inactive) | > 100 µM (inactive) | > 100 µM (inactive) | > 100 µM (inactive) | > 100 µM (inactive) | > 100 µM (inactive) | > 100 µM (inactive) | > 100 µM (inactive) |  | > 100 µM (inactive) | > 100 µM (inactive) | > 100 µM (inactive) | > 100 µM (inactive) | 48.1 µM (inactive) | > 10 µM (inactive) | > 100 µM (inactive) | > 100 µM (inactive) | > 100 µM (inactive) | 41.5 µM (inactive) |
| COc1ccc([C@]23CCC4(OCC(C)(C)CO4)[C@H]4CON(O[C@H](O[C@@H]5CCCCC5C(C)(C)c5ccccc5)C2)[C@@H]43)cc1OC (stereo partly specified) | 97.3 µM (inactive) | 41.5 µM (inactive) | 36.4 µM (inactive) | 44 µM (inactive) | 35.6 µM (inactive) | 34.7 µM (inactive) | 42.6 µM (inactive) | 26.9 µM (inactive) | 39 µM (inactive) |  | 58.6 µM (inactive) | 60 µM (inactive) | 29.5 µM (inactive) | 33.3 µM (inactive) | 20.6 µM (inactive) | 22.2 µM (inactive) | 89.1 µM (inactive) | 61.1 µM (inactive) | 69 µM (inactive) | 20 µM (inactive) |
| CN(C)Cc1cc(/N=N/c2ccccc2Cl)ccc1O | 10.7 µM (inactive) | 18.7 µM (inactive) | 13.3 µM (inactive) | 14.2 µM (inactive) | 19.3 µM (inactive) | 13.4 µM (inactive) | 16.9 µM (inactive) | 23.7 µM (inactive) | 16.6 µM (inactive) |  | 16.1 µM (inactive) | 6.05 µM (inactive) | 17.4 µM (inactive) | 28.1 µM (inactive) | 10.8 µM (inactive) | 11.9 µM (inactive) | 22.9 µM (inactive) | 25.6 µM (inactive) | 17 µM (inactive) | 26.5 µM (inactive) |
| CN(C)C(c1ccccc1)C(O)c1ccccc1 (stereo unspecified) | > 100 µM (inactive) | 75.5 µM (inactive) | > 100 µM (inactive) | > 100 µM (inactive) | > 100 µM (inactive) | > 100 µM (inactive) | > 100 µM (inactive) | > 100 µM (inactive) | > 100 µM (inactive) | > 100 µM (inactive) | > 100 µM (inactive) |  | > 100 µM (inactive) |  | > 100 µM (inactive) |  |  | > 100 µM (inactive) |  |  |
| O=c1oc2c(Br)c(O)c(Br)cc2c2ccccc12 | 30.5 µM (inactive) | 32 µM (inactive) | 36.6 µM (inactive) | 30 µM (inactive) | 31.9 µM (inactive) | 29.9 µM (inactive) | 35.3 µM (inactive) | 27 µM (inactive) | 34 µM (inactive) |  | 27.1 µM (inactive) | 33.6 µM (inactive) | 25.6 µM (inactive) | 29.4 µM (inactive) | 23 µM (inactive) | 24.5 µM (inactive) | 35 µM (inactive) | 26.5 µM (inactive) | 29 µM (inactive) | 23.2 µM (inactive) |
| Nc1nc2c(ncn2C2OC(CO)C(O)C2N)c(=O)[nH]1 (stereo unspecified) | > 100 µM (inactive) | > 100 µM (inactive) | > 100 µM (inactive) | > 100 µM (inactive) | > 100 µM (inactive) | > 100 µM (inactive) | > 100 µM (inactive) |  | > 100 µM (inactive) | > 100 µM (inactive) |  | > 100 µM (inactive) | 40.1 µM (inactive) | > 100 µM (inactive) | 97.9 µM (inactive) |  | > 100 µM (inactive) | > 100 µM (inactive) |  |  |
| COc1cc2c(cc1OC)C1c3ccccc3CCN1CCC2.[O-][Cl+3]([O-])([O-])O (stereo unspecified) | > 100 µM (inactive) | > 100 µM (inactive) | > 100 µM (inactive) | 69.7 µM (inactive) | > 100 µM (inactive) | > 100 µM (inactive) | > 100 µM (inactive) | 63.7 µM (inactive) | > 100 µM (inactive) |  | > 100 µM (inactive) | > 100 µM (inactive) | > 100 µM (inactive) | 74.3 µM (inactive) | 68.5 µM (inactive) | > 100 µM (inactive) | > 100 µM (inactive) | > 100 µM (inactive) | 23.6 µM (inactive) | > 100 µM (inactive) |
| O=C(/C=C\Nc1ccccc1O)C(F)(F)F | 30.6 µM (inactive) | > 100 µM (inactive) | > 100 µM (inactive) | > 100 µM (inactive) | 40.3 µM (inactive) | 13.9 µM (inactive) | > 100 µM (inactive) | 15.5 µM (inactive) | 50 µM (inactive) |  | > 100 µM (inactive) | 90.4 µM (inactive) | 39 µM (inactive) | 29.5 µM (inactive) | 16.6 µM (inactive) | 21 µM (inactive) | > 100 µM (inactive) | 54.8 µM (inactive) | > 100 µM (inactive) | 36.3 µM (inactive) |
| CN(C)CCC(CCN(C)C)=NOC(=O)c1ccccc1 | > 100 µM (inactive) | > 100 µM (inactive) | > 100 µM (inactive) | > 100 µM (inactive) | > 100 µM (inactive) | > 100 µM (inactive) | > 100 µM (inactive) | > 100 µM (inactive) | > 100 µM (inactive) | > 100 µM (inactive) |  | > 100 µM (inactive) | > 100 µM (inactive) | > 100 µM (inactive) | > 100 µM (inactive) | > 100 µM (inactive) |  | > 100 µM (inactive) |  |  |
| COc1ccccc1NC(=S)N/N=C/c1cccc(C)n1 | 5.85 µM (inactive) | 5.62 µM (inactive) | 3.14 µM (inactive) | 4.17 µM (inactive) | 2.18 µM (inactive) | 1.68 µM (inactive) | 8.53 µM (inactive) | 2.11 µM (inactive) | 4.32 µM (inactive) |  | 5.82 µM (inactive) | 4.07 µM (inactive) | 0.422 µM (active) | 3.4 µM (inactive) | 3.15 µM (inactive) | 4.17 µM (inactive) | > 27.4 µM (inactive) | 7.1 µM (inactive) | 15.1 µM (inactive) | 2.43 µM (inactive) |
| N#CCCNCCN(CCN(C(=O)Nc1ccccc1)c1ccccc1)C(=O)Nc1ccccc1 | 65.9 µM (inactive) | 25.8 µM (inactive) | 59.7 µM (inactive) | 33.2 µM (inactive) | 21.1 µM (inactive) | 20.2 µM (inactive) | 18.7 µM (inactive) | 57 µM (inactive) | 51.8 µM (inactive) |  | 54.7 µM (inactive) | 59.4 µM (inactive) | 78.9 µM (inactive) | 21.4 µM (inactive) | 35.9 µM (inactive) | 19.9 µM (inactive) | 64.6 µM (inactive) | 78.9 µM (inactive) | 38.4 µM (inactive) | 34.2 µM (inactive) |
| CC(=O)/C=N/CC(=O)O | > 100 µM (inactive) | > 100 µM (inactive) | > 100 µM (inactive) | > 100 µM (inactive) | > 100 µM (inactive) | > 100 µM (inactive) | > 100 µM (inactive) | > 100 µM (inactive) | > 100 µM (inactive) |  | > 100 µM (inactive) | > 100 µM (inactive) | > 100 µM (inactive) | > 100 µM (inactive) | > 100 µM (inactive) | > 100 µM (inactive) | > 100 µM (inactive) | > 100 µM (inactive) | > 100 µM (inactive) | > 100 µM (inactive) |
| O=C1/C(=C/c2ccc(Cl)cc2)CNC/C1=C\c1ccc(Cl)cc1 | 3.42 µM (inactive) | 2.9 µM (inactive) | 0.792 µM (active) |  | 1.89 µM (inactive) | 2.03 µM (inactive) | 1.82 µM (inactive) | 0.267 µM (active) |  | 2.38 µM (inactive) |  | 3.6 µM (inactive) |  | 1.65 µM (inactive) |  | 6.73 µM (inactive) |  | 2.67 µM (inactive) |  |  |
